What all share (assay type): cell-based
One test concerns AML193. The experiment in a line: Cell viability, Promega Celltiter Fluor (72 h). The following applies: Homo sapiens; AML193, Acute Myeloid Leukemia, assay duration 72 hours; read-out: LP-284 IC50. As for the experimental part: (§1) The sensitivity and selectivity of Compound 1 (with positive optical chirality) was assessed using a panel of human blood cell lines. The cell lines used in this Example are shown below and plotted in FIG. 1. The cells were inoculated into 96 well plates at various numbers of cells/well depending on the doubling time of the cell line for 24 hours. Then these cells were treated by Compound 1 at 5˜8 different doses and DMSO vehicle controls. After another 48 or 72 hour incubation, the number viable cells/wells were measured by the sulforhodamine B (SRB) assay (48 h) or the Promega Celltiter Fluor Cell Viability (72 h). IC50 values were then calculated based on normalized cell counts at different Compound 1 doses. Anti-proliferative activity was determined by cell viability measurements.

The next test concerns CA46. Put plainly: Cell viability, Promega Celltiter Fluor (72 h). The following applies: Homo sapiens; CA46, Burkitt's Lymphoma, assay duration 72 hours; read-out: LP-284 IC50. As for the experimental part:
as §1

The test system of the next test is JEKO1. Put plainly: Cell viability, Promega Celltiter Fluor (72 h). The following applies: Homo sapiens, JeKo-1; JEKO1, Mantle Cell Lymphoma, assay duration 72 hours; read-out: LP-284 IC50. As for the experimental part:
as §1

The next test has as its system JVM2. The experiment in a line: Cell viability, Promega Celltiter Fluor (72 h). The following applies: Homo sapiens, JVM-2; JVM2, Mantle Cell Lymphoma, assay duration 72 hours; read-out: LP-284 IC50. As for the experimental part:
as §1

In the next test the test system is K562R. Put plainly: Cell viability, Promega Celltiter Fluor (72 h). The following applies: Homo sapiens, K-562R, Chronic Myeloid Leukemia, assay duration 72 hours, read-out: LP-284 IC50. As for the experimental part:
as §1

For a further test, the system named is K562. The experiment in a line: Cell viability, Promega Celltiter Fluor (72 h). The following applies: Homo sapiens; K562, Chronic Myeloid Leukemia, assay duration 72 hours; read-out: LP-284 IC50. As for the experimental part:
as §1

The next test concerns KU812. Put plainly: Cell viability, Promega Celltiter Fluor (72 h). The following applies: Homo sapiens; KU812, Chronic Myeloid Leukemia, assay duration 72 hours; read-out: LP-284 IC50. As for the experimental part: as §1
A further test deals with MAVER1. Put plainly: Cell viability, Promega Celltiter Fluor (72 h). The following applies: Homo sapiens; MAVER1, Mantle Cell Lymphoma, assay duration 72 hours; read-out: LP-284 IC50. As for the experimental part:
as §1

The next test concerns MINO. The experiment in a line: Cell viability, Promega Celltiter Fluor (72 h). The following applies: Homo sapiens, Mantle Cell Lymphoma, assay duration 72 hours, read-out: LP-284 IC50. As for the experimental part: as §1
The subject of another test is NCIH929. The experiment in a line: Cell viability, Promega Celltiter Fluor (72 h). The following applies: Homo sapiens, NCI-H929; NCIH929, Multiple Myeloma, assay duration 72 hours; read-out: LP-284 IC50. As for the experimental part: as §1
In a further test the test system is REC1. The experiment in a line: Cell viability, Promega Celltiter Fluor (72 h). The following applies: Homo sapiens; REC1, Mantle Cell Lymphoma, assay duration 72 hours; read-out: LP-284 IC50. As for the experimental part: as §1
A further test has as its system REH. Put plainly: Cell viability, Promega Celltiter Fluor (72 h). The following applies: Homo sapiens, Acute Lymphoblastic Leukemia, assay duration 72 hours, read-out: LP-284 IC50. As for the experimental part:
as §1

The test system of a further test is SUDHL6. The experiment in a line: Cell viability, Promega Celltiter Fluor (72 h). The following applies: Homo sapiens, SU-DHL-6; SUDHL6, Double-Hit Lymphoma, assay duration 72 hours; read-out: LP-284 IC50. As for the experimental part:
as §1

In another test the test system is SUPB15. The experiment in a line: Cell viability, Promega Celltiter Fluor (72 h). The following applies: Homo sapiens, SUP-B15; SUPB15, Acute Lymphoblastic Leukemia, assay duration 72 hours; read-out: LP-284 IC50. As for the experimental part:
as §1

The next test deals with THP1. The experiment in a line: Cell viability, Promega Celltiter Fluor (72 h). The following applies: Homo sapiens, THP-1; THP1, Acute Myeloid Leukemia, assay duration 72 hours; read-out: LP-284 IC50. As for the experimental part:
as §1

The next test has as its system U937. The experiment in a line: Cell viability, Promega Celltiter Fluor (72 h). The following applies: Homo sapiens, U-937; U937, Acute Myeloid Leukemia, assay duration 72 hours; read-out: LP-284 IC50. As for the experimental part:
as §1

The subject of another test is Z138. Put plainly: Cell viability, Promega Celltiter Fluor (72 h). The following applies: Homo sapiens, Z-138; Z138, Mantle Cell Lymphoma, assay duration 72 hours; read-out: LP-284 IC50. As for the experimental part:
as §1

The next test relates to CCRFCEM. Put plainly: Cell viability, sulforhodamine B (SRB) assay (48 h). The following applies: Homo sapiens, CCRF-CEM, Acute Lymphoblastic Leukemia, assay duration 48 hours, read-out: LP-284 IC50. As for the experimental part:
as §1
On the technique in general: The SRB assay estimates cell density from bound dye.

A further test deals with HL60TB. Described as above. The following applies: Homo sapiens, HL-60, Acute Myeloid Leukemia, assay duration 48 hours, read-out: LP-284 IC50. As for the experimental part:
as §1

A further test concerns MOLT4. The test is described as above. The following applies: Homo sapiens, MOLT-4; MOLT4, Acute Lymphoblastic Leukemia, assay duration 48 hours; read-out: LP-284 IC50. As for the experimental part:
as §1

The subject of a further test is RPMI8226. Described as above. The following applies: Homo sapiens, RPMI-8226; RPMI8226, Multiple Myeloma, assay duration 48 hours; read-out: LP-284 IC50. As for the experimental part:
as §1

In another test the test system is SR. The description is as above. The following applies: Homo sapiens, Anaplastic large cell lymphoma, assay duration 48 hours, read-out: LP-284 IC50. As for the experimental part:
as §1

The structures appear in SMILES notation.

`CC1=C(CN(O)C(N)=O)C2=C(C)C3(CC3)[C@@](C)(O)C(=O)C2=C1` [LP-284, hydroxyureamethyl acylfulvene]: the IC50 (usually the concentration needed to halve the response being measured) in the test on AML193 is 1800 nM; in the test with CA46 it was 431 nM; in the test on JEKO1 it was 263 nM; in the test on JVM2, 343 nM; in the test on K562R it was 295 nM; in the test on K562, 298 nM. For the same molecule, the IC50 amounted to 488 nM in the test with KU812; 193 nM in the test on MAVER1; 88 nM in the test on MINO; 334 nM with NCIH929; 794 nM in the test with REC1; 114 nM in the test with REH. Moreover, the IC50 with SUDHL6 came to 449 nM; in the test on SUPB15, 588 nM; in the test with THP1, 1500 nM; in the test on U937 it was 660 nM; in the test on Z138, 370 nM; in the test on CCRFCEM, 2220 nM. Further, the IC50 in the test on HL60TB amounted to 952 nM; in the test on MOLT4 it was 9.02 µM; with RPMI8226, 348 nM; in the test on SR, 896 nM.

The values are drawn from patent US20240082181A1, “Method for Treating Blood Cancers” (Lantern Pharma Inc., priority 2021, published 2024).
